According to article PMC9161374 (Science Translational Medicine, 2022):
Values joined by “and” are separate entries in the source; they are usually repeats but may differ in a detail not shown here. Identical values can stand only once. Like-named read-outs stand apart in the source and are kept apart here.

Legend:
[1] = tested on: SARS-CoV-2 replicon system (pBAC-SARS-CoV-2-Replicon-Luc); assay: microbe, parasite or virus in culture; format: cell-based; details: Severe acute respiratory syndrome coronavirus 2, HEK-293T, 60 h
SARS-CoV-2 (B.1) = assay: Anti-SARS-CoV-2 activity in Vero E6 cells (viral yield by qRT-PCR); format: cell-based
[2] = tested on: SARS-CoV-2 (Beta, B.1.351); assay: microbe, parasite or virus in culture; format: cell-based; details: for EC50: read-out: EC50 in Vero E6 cells, SARS-CoV-2 (Beta, B.1.351); for % Inhibition: beta
[3] = tested on: SARS-CoV-2 (Delta, B.1.617.2); assay: microbe, parasite or virus in culture; format: cell-based; details: for % Inhibition: delta
[4] = tested on: SARS-CoV-2 (B.1) in Huh7 cells; assay: Anti-SARS-CoV-2 activity in Huh7 cells (viral yield by qRT-PCR); format: cell-based; details: B.1, MOI 0.05, 48 h
[5] = CCK-8 cell viability assay; format: cell-based, African green monkey; details: African green monkey; Vero E6 cells, 48 h, CCK8
Description: To investigate the effect of drugs on cell viability, Vero E6 cells were seeded in 96-well plates at a density of 20,000 cells per well and were treated with drugs at indicated concentrations (0, 0.01, 0.1, 1, 5, 10, 50, 75, 100, 200 μM) for 48 hours. Cell viability was tested by using Cell Counting Kit-8 (CCK-8, Bimake, B34302). The figures were plotted from cell viability percentage versus the drug concentrations using GraphPad Prism 6 software.
Fig. S4. Cytotoxicity assay of compounds in Vero E6 cells.
Vero E6 cells were plated in 96-well plates and treated with increasing concentrations
of each indicated compound, ranging from 0 to 200 μM, for 48 hours. Cell viability was
tested using Cell Counting Kit-8 (CCK-8). Data are presented as mean ± SD.

SARS-CoV-2 (strain B.1) = assay: SARS-CoV-2 infection in Ad5-hACE2 mice; format: in vivo, Ad5-hACE2 BALB/c mice

## CCCC(=O)OC[C@H]1O[C@@](C#N)(c2ccc3c(N)ncnn23)[C@H](O)[C@@H]1O [ATV009]
[1]; read-out: EC50 (Confidence 95%), replicon
  EC50: 217 nM
[1]; read-out: EC90 (Confidence 95%), replicon
  EC90: 313 nM
SARS-CoV-2 (B.1); 1 μM, replicates, sheet Fig.S3
  % Inhibition: 55.195%
SARS-CoV-2 (B.1); 2 μM, replicates, sheet Fig.S3
  % Inhibition: 75.409%
SARS-CoV-2 (B.1); 5 μM, replicates, sheet Fig.S3
  % Inhibition: 88.59%
SARS-CoV-2 (B.1); 10 μM, replicates, sheet Fig.S3
  % Inhibition: 90.9393%
SARS-CoV-2 (B.1); B.1, 2 uM, Vero E6, replicates, 2 µM
  % Inhibition: 99.9224%
SARS-CoV-2 (B.1); B.1, 5 uM, Vero E6, replicates, 5 µM
  % Inhibition: 99.9224%
SARS-CoV-2 (B.1); B.1, 10 uM, Vero E6, replicates, 10 µM
  % Inhibition: 99.9809%
SARS-CoV-2 (B.1); B.1, 50 uM, Vero E6, replicates, 50 µM
  % Inhibition: 99.9896%
SARS-CoV-2 (B.1); Severe acute respiratory syndrome coronavirus 2, Vero C1008, 0.1 μM, replicates, sheet Fig.S3
  inhibition at 0.1 µM: 0%
SARS-CoV-2 (B.1); Severe acute respiratory syndrome coronavirus 2, Vero C1008, 0.5 μM, replicates, sheet Fig.S3
  inhibition at 0.5 µM: 0%
SARS-CoV-2 (B.1); Severe acute respiratory syndrome coronavirus 2, Vero C1008, 1 μM, replicates, sheet Fig.S3
  inhibition at 1 µM: 63.5%
SARS-CoV-2 (B.1); Severe acute respiratory syndrome coronavirus 2, Vero C1008, 2 μM, replicates, sheet Fig.S3
  inhibition at 2 µM: 75.7%
SARS-CoV-2 (B.1); Severe acute respiratory syndrome coronavirus 2, Vero C1008, 5 μM, replicates, sheet Fig.S3
  inhibition at 5 µM: 90.9%
SARS-CoV-2 (B.1); Severe acute respiratory syndrome coronavirus 2, Vero C1008, 10 μM, replicates, sheet Fig.S3
  inhibition at 10 µM: 93.2%
SARS-CoV-2 (B.1); Severe acute respiratory syndrome coronavirus 2, Vero C1008, B.1, 0.01 uM, Vero E6, replicates
  inhibition at 0.01 µM: 0%
SARS-CoV-2 (B.1); Severe acute respiratory syndrome coronavirus 2, Vero C1008, B.1, 0.1 uM, Vero E6, replicates
  inhibition at 0.1 µM: 0%
SARS-CoV-2 (B.1); Severe acute respiratory syndrome coronavirus 2, Vero C1008, B.1, 0.25 uM, Vero E6, replicates
  inhibition at 0.25 µM: 0%
SARS-CoV-2 (B.1); Severe acute respiratory syndrome coronavirus 2, Vero C1008, B.1, 0.5 uM, Vero E6, replicates
  inhibition at 0.5 µM: 0%
SARS-CoV-2 (B.1); Severe acute respiratory syndrome coronavirus 2, Vero C1008, B.1, 1 uM, Vero E6, replicates
  inhibition at 1 µM: 0%
SARS-CoV-2 (B.1); Severe acute respiratory syndrome coronavirus 2, Vero C1008, B.1, 2 uM, Vero E6, replicates
  inhibition at 2 µM: 99.8%
SARS-CoV-2 (B.1); Severe acute respiratory syndrome coronavirus 2, Vero C1008, B.1, 5 uM, Vero E6, replicates
  inhibition at 5 µM: 99.8%
SARS-CoV-2 (B.1); Severe acute respiratory syndrome coronavirus 2, Vero C1008, B.1, 10 uM, Vero E6, replicates
  inhibition at 10 µM: 99.9%
SARS-CoV-2 (B.1); Severe acute respiratory syndrome coronavirus 2, Vero C1008, B.1, 50 uM, Vero E6, replicates
  inhibition at 50 µM: 99.9%
SARS-CoV-2 (B.1); Severe acute respiratory syndrome coronavirus 2, Vero C1008, read-out: EC90 (Confidence 95%)
  EC90: 1530 nM
SARS-CoV-2 (B.1); Severe acute respiratory syndrome coronavirus 2, Vero C1008, MOI 0.05, 48 h
  EC50: 1330 nM
[2]; Severe acute respiratory syndrome coronavirus 2, Vero C1008, 48 h
  EC50: 1380 nM
[2]; Severe acute respiratory syndrome coronavirus 2, Vero C1008, beta, 0.01 uM, Vero E6, replicates
  inhibition at 0.01 µM: 0%
[2]; Severe acute respiratory syndrome coronavirus 2, Vero C1008, beta, 0.1 uM, Vero E6, replicates
  inhibition at 0.1 µM: 0%
[2]; Severe acute respiratory syndrome coronavirus 2, Vero C1008, beta, 0.25 uM, Vero E6, replicates
  inhibition at 0.25 µM: 0%
[2]; Severe acute respiratory syndrome coronavirus 2, Vero C1008, beta, 0.5 uM, Vero E6, replicates
  inhibition at 0.5 µM: 0%
[2]; Severe acute respiratory syndrome coronavirus 2, Vero C1008, beta, 1 uM, Vero E6, replicates
  inhibition at 1 µM: 0%
[2]; Severe acute respiratory syndrome coronavirus 2, Vero C1008, beta, 2 uM, Vero E6, replicates
  inhibition at 2 µM: 97%
[2]; Severe acute respiratory syndrome coronavirus 2, Vero C1008, beta, 5 uM, Vero E6, replicates
  inhibition at 5 µM: 99.7%
[2]; Severe acute respiratory syndrome coronavirus 2, Vero C1008, beta, 10 uM, Vero E6, replicates
  inhibition at 10 µM: 99.9%
[2]; Severe acute respiratory syndrome coronavirus 2, Vero C1008, beta, 50 uM, Vero E6, replicates
  inhibition at 50 µM: 99.9%
[2]; Severe acute respiratory syndrome coronavirus 2, Vero C1008, read-out: EC90 (Confidence 95%), Vero-E6, Beta B.1.351
  EC90: 1780 nM
[2]; 2 uM, Vero E6, replicates
  % Inhibition: 97.0202%
[2]; 5 uM, Vero E6, replicates
  % Inhibition: 99.5977%
[2]; 10 uM, Vero E6, replicates
  % Inhibition: 99.9341%
[2]; 50 uM, Vero E6, replicates
  % Inhibition: 99.9498%
[2]
  EC50: 1480 nM
[3]; Severe acute respiratory syndrome coronavirus 2, Vero C1008, 48 h, read-out: EC50 in Vero E6 cells, SARS-CoV-2 (Delta, B.1.617.2)
  EC50: 492 nM
[3]; Severe acute respiratory syndrome coronavirus 2, Vero C1008, delta, 0.01 uM, Vero E6, replicates
  inhibition at 0.01 µM: 0%
[3]; Severe acute respiratory syndrome coronavirus 2, Vero C1008, delta, 0.1 uM, Vero E6, replicates
  inhibition at 0.1 µM: 0%
[3]; Severe acute respiratory syndrome coronavirus 2, Vero C1008, delta, 0.25 uM, Vero E6, replicates
  inhibition at 0.25 µM: 0%
[3]; Severe acute respiratory syndrome coronavirus 2, Vero C1008, delta, 0.5 uM, Vero E6, replicates
  inhibition at 0.5 µM: 57.8%
[3]; Severe acute respiratory syndrome coronavirus 2, Vero C1008, delta, 1 uM, Vero E6, replicates
  inhibition at 1 µM: 94%
[3]; Severe acute respiratory syndrome coronavirus 2, Vero C1008, delta, 2 uM, Vero E6, replicates
  inhibition at 2 µM: 95.8%
[3]; Severe acute respiratory syndrome coronavirus 2, Vero C1008, delta, 5 uM, Vero E6, replicates
  inhibition at 5 µM: 91.8%
[3]; Severe acute respiratory syndrome coronavirus 2, Vero C1008, delta, 10 uM, Vero E6, replicates
  inhibition at 10 µM: 99.7%
[3]; Severe acute respiratory syndrome coronavirus 2, Vero C1008, delta, 50 uM, Vero E6, replicates
  inhibition at 50 µM: 99.9%
[3]; Severe acute respiratory syndrome coronavirus 2, Vero C1008, read-out: EC90 (Confidence 95%), Vero-E6, Delta B.1.617.2
  EC90: 678 nM
[3]; 0.5 uM, Vero E6, replicates
  % Inhibition: 47.7229%
[3]; 1 uM, Vero E6, replicates
  % Inhibition: 93.0132%
[3]; 2 uM, Vero E6, replicates
  % Inhibition: 93.5943%
[3]; 5 uM, Vero E6, replicates
  % Inhibition: 86.9079%
[3]; 10 uM, Vero E6, replicates
  % Inhibition: 98.6486%
[3]; 50 uM, Vero E6, replicates
  % Inhibition: 99.5907%
[4]; Severe acute respiratory syndrome coronavirus 2, Huh-7, read-out: EC50 (Confidence 95%) in Huh7 cells
  EC50: 1040 nM
[4]; Severe acute respiratory syndrome coronavirus 2, Huh-7, read-out: EC90 (Confidence 95%) in Huh7 cells
  EC90: 1310 nM
[5]
  CC50 at 48 h: > 50000 nM

## CC(C)C(=O)OC[C@H]1O[C@@H](n2ccc(NO)nc2=O)[C@H](O)[C@@H]1O [EIDD-2801, molnupiravir, reference compound]
SARS-CoV-2 (strain B.1); 500 mg/kg orally once daily, 2 dpi, FFA, individual mice
  Lung viral titer, Log10 (FFU/g): 3.468 Log10 (FFU/g) and 2.623 Log10 (FFU/g) and 3.1 Log10 (FFU/g)
SARS-CoV-2 (strain B.1); ATV006 250 mg/kg, EIDD-2801 500 mg/kg, orally once daily
  viral load and pathological damage of the lung: reduce the viral load and pathological damage of the lung
